Experimental findings from patent US9249208B2, “Citrulline peptides derived from fibrin and recognized by rheumatoid arthritis specific autoantibodies, and the use thereof” (Biomerieux, priority 2004, dated 2016) are described below.

Holding throughout (type): binding, human
The test system of test [1] is anti-citrullinated protein autoantibodies (ACPAs). The experiment in a line: ELISA comparing amidated and nonamidated β60-74Cit60,72,74 with serum mixtures A and B. The following applies: for delta OD: coating in PBS, versus noncitrullinated β60-74, mean of two experiments. An excerpt: ELISA plates were coated with the peptide β60-74Cit60,72,74, in which the C-terminal function of the carboxy-terminal citrullyl residue is not amidated (form carrying a terminal COOH function, hereinafter referred to as “nonamidated form”), with the peptide […], in which the C-terminal function of the carboxy-terminal citrullyl residue is amidated (form carrying a terminal CONH2 function, hereinafter referred to as “amidated form”) and the noncitrullinated peptide β60-74 (in which the C-terminal function of the carboxy-terminal arginyl residue is not amidated), all diluted in PBS. The serum mixtures A and B described in Example 1 were tested according to the method described in Example 2. As in Example 2, the specific reactivity of the peptide in nonamidated form or in amidated form corresponded to the difference between the OD obtained with these two citrullinated peptides and that obtained with the noncitrullinated peptide β60-74. […] The results correspond to the mean of two experiments, each comprising two determinations.
In general terms: ELISA stands for enzyme-linked immunosorbent assay.

Test [2] has the same test system. The experiment in a line: ELISA of reactive citrullinated fibrin peptides with the 20 individual sera of mixtures A and B. The following applies: for delta OD: best coating buffer per peptide. How it is done: The 14 peptides carrying the most reactive epitopes (delta OD≧0.5 for one or other of the mixtures of serum (A and B) with at least one of the three coating buffers) were tested independently with the 20 sera constituting the mixtures A and B, in order to evaluate the reactivity profile of each of these peptides. The tests were carried out by ELISA under the same conditions as in Example 2 above, with the exception that, for each pair of peptides, the coating buffer selected was that that had made it possible to obtain the strongest reactivity with respect to this peptide during the screening (the buffer for which the sum of the delta ODs obtained respectively for the serum mixtures A and B was at a maximum). […] Thus, for each serum, the dilution that made it possible to obtain an OD of 1 by ELISA on deiminated fibrinogen was selected (Nogueira L, 2002, mentioned above). The dilutions ranged from 1/20 to 1/2700.

Test [3] has the same test system. The experiment in a line: ELISA of citrullinated/native fibrin peptide pairs with serum mixtures A and B and control mixture (delta OD). Particulars: mean of two determinations. How it is done:
Each pair of peptides (citrullinated and noncitrullinated) was assayed by ELISA with a mixture, in equal parts, of 10 sera having no ACPAs (control mixture) and with the 2 mixtures A and B described in Example 1.
Each pair of peptides (native and citrullinated form) was tested on the same plate and a pair of control peptides—citrullinated “filaggrin” peptide cfc6 and its corresponding native peptide cf0 (Schellekens G A, 1998, mentioned above)—was included in each experiment, which made it possible to calculate an inter-assay coefficient of variation and to perform corrections.
All the incubations were carried out for 1 h at 4° C. and were followed by washing in PBS-0.1% Tween. The peroxidase activity was visualized with a solution of ortho-phenylenediamine (2 mg/ml—Sigma) in hydrogen peroxide (0.03%—Sigma). The reaction was stopped after 5 minutes by adding 4M sulfuric acid, and the optical density (OD) at 492 nm was measured by virtue of an automatic spectrophotometer (Multiskan, Thermo Labsystems).
The specific reactivity of the mixtures of sera with regard to the citrullinated peptides corresponded to the difference between the OD obtained with the citrullinated peptide and that obtained with the corresponding native peptide (delta OD). The results correspond to the mean of two determinations. Any citrullinated peptide making it possible to obtain a delta OD of greater than 0.250 for at least one of the two mixtures A and B after coating in at least one of the three buffers, was considered to be reactive.

Marks after values point to notes of the source that are not given here.

“β60-74Cit60,72,74: citrullinated synthetic peptide, fibrin β-chain residues 60-74, C-terminal citrullyl amidated; fits SEQ ID NO: 1 X1PAPPPISGGGYX2AX3 (XPAPPPISGGGYXAX; HELM PEPTIDE1{[Cit].P.A.P.P.P.I.S.G.G.G.Y.[Cit].A.[Cit].[am]}$$$$V2.0; N-terminus assumed; SMILES CC[C@H](C)[C@H](NC(=O)[C@@H]1CCCN1C(=O)[C@@H]1CCCN1C(=O)[C@@H]1CCCN1C(=O)[C@H](C)NC(=O)[C@@H]1CCCN1C(=O)[C@@H](N)CCCNC(N)=O)C(=O)N[C@@H](CO)C(=O)NCC(=O)NCC(=O)NCC(=O)N[C@@H](Cc1ccc(O)cc1)C(=O)N[C@@H](CCCNC(N)=O)C(=O)N[C@@H](C)C(=O)N[C@@H](CCCNC(N)=O)C(N)=O)”: the “delta OD” value in test [1] (Mixture A) is given as 2.13; in test [1] (Mixture B), 2.74; in test [2] (serum 95.0256, dilution 1/35), 3.48; in test [2] (serum 97.0169, dilution 1/400) it was 0.31; in test [2] (serum 97.0244, dilution 1/2700) it was 1.23; in test [2] (serum 97.0311, dilution 1/200), 1.93. Further, the “delta OD” value in test [2] (serum 97.0323, dilution 1/120) is given as 1.73; in test [2] (serum 97.0459, dilution 1/60), 0.71^c; in test [2] (serum 97.0468, dilution 1/700) it was 1.08; in test [2] (serum 97.0506, dilution 1/75), 1.93; in test [2] (serum 97.0794, dilution 1/50), 0.75; in test [2] (serum 97.0796, dilution 1/500) it was 0.36. The “delta OD” value in test [2] (serum 97.0907, dilution 1/300) came to 1.17; in test [2] (serum 97.1210, dilution 1/300) it was 3.33; in test [2] (serum 97.1474, dilution 1/20) it was 0.37; in test [2] (serum 97.1548, dilution 1/60), 1.48. Besides, the “reactivity of amidated versus nonamidated form” value in test [1] (serum mixtures A and B, PBS coating) is reported as “clearly greater than that of the nonamidated form”. Further, the “Number of positive sera” value in test [2] (sera with delta OD not <0.25 out of sera tested (20, or 10 of mixture A only)) is on record as 14/20. Besides, the “delta OD (citrullinated minus native peptide, 492 nm)” value in test [3] (Mixture A of sera 1/50, coating buffer PBS pH 7.4) turned out to be 2.06; in test [3] (Mixture A of sera 1/50, coating buffer acetate pH 5.0) it was 1.02; in test [3] (Mixture A of sera 1/50, coating buffer carbonate pH 9.0) it was 1.27; in test [3] (Mixture B of sera 1/50, coating buffer PBS pH 7.4), 2.69; in test [3] (Mixture B of sera 1/50, coating buffer acetate pH 5.0), 2.83; in test [3] (Mixture B of sera 1/50, coating buffer carbonate pH 9.0) it was 2.72.
